Test results published in patent US20260174769A1, “MACROCYCLIC COMPOUNDS AND METHODS OF USE” (AMGEN INC., priority 2022, published 2026).
pIC50: −log10 of the molar value. Read-outs that look alike come from different tables or passages of the source.

Experiments:
[1] = target: His-tagged KRAS G12D protein (Homo sapiens, UniProt P01116, G12D); experiment: KRAS G12D TR-FRET Assay; type: binding
Procedure, shortened: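 GDP-loaded His-KRAS G12D (20 nM in HEPES pH 7.4, MgCl2, NaCl, BSA, Tween-20, 10 μM GDP) preincubated with compound 30 min at room temperature, then 20 nM biotinylated KRPep-2d peptide added for 1 h. TR-FRET detection used Eu anti-His and streptavidin-d2, read after 1 h.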

[2] = tested on: Phosphorylation of ERK1/2 in AsPC-1 cells; experiment: Phospho-ERK1/2 MSD Assay; type: cell-based, human; details: read-out: 2 h p-ERK (AsPC-1 cells), IC50
Description: Sixteen hours prior to compound treatment, AsPC-1 cells were seeded in 96-well cell culture plates at a density of 25,000 cells/well and incubated at 37° C., 5% CO2. A compound dose-response titration was diluted in growth media, added to appropriate wells of a cell culture plate, and then incubated at 37° C., 5% CO2 for 2 hours. […] Phosphorylation of ERK1/2 in compound-treated lysates was assayed using Phospho-ERK 1/2 Whole Cell Lysate kits (Meso Scale Discovery K151DWD) according to the manufacturer's protocol. Assay plates were read on a Meso Scale Discovery Sector Imager 6000, and data were analyzed using a 4-parameter logistic model to calculate IC50 values.

AsPC-1 cells = experiment: AsPC-1 CTG Assay (CellTiter-Glo cell viability, 72 h); type: cell-based, human; details: read-out: G12D/C/V Cell Proliferation CTG (72 h) AsPC-1
Description: AsPC-1 and SW620 CTG Assay Protocols
(§1) Serially-diluted compound or DMSO was added to the cells, and plates were incubated at 37° C., 5% CO2 for 72 h. Cell viability was measured using a CellTiter-Glo® Luminescent Cell Viability Assay kit (Promega) according to the manufacturer's protocol. The luminescence signal of treated samples was normalized to DMSO control, and data were analyzed using a 4-parameter logistic model to calculate IC50 values.

MIA PaCa-2 cells = experiment: MIA PaCa-2 CTG Assay (CellTiter-Glo cell viability, 72 h); type: cell-based, human; details: Homo sapiens, second value of cell, read-out: G12D/C/V Cell Proliferation CTG (72 h) Mia PaCa-2
Description: MIA PaCa-2 CTG Assay Protocol
as §1

[3] = 16-membered ring
[4] = target: GDP-bound KRAS protein (aa 1-169), containing both G12D and C118A amino acid substitutions (Homo sapiens, UniProt P01116, C118A/G12D); experiment: KRAS G12D Coupled Nucleotide Exchange Assay; type: biochemical
Description: KRAS G12D Coupled Nucleotide Exchange Assay
The assay plates were then read on a PerkinElmer En Vision Multilabel Reader, using AlphaScreen® technology, and data were analyzed using a 4-parameter logistic model to calculate IC50 values.

[5] = Homo sapiens, ASPC1, 2 h, AsPC-1 cells, 2 h compound treatment
[6] = Homo sapiens, ASPC1, 72 h, AsPC-1 cells, 72 h, first value of cell
[7] = 2 hours compound pre-incubation, SOS-mediated nucleotide exchange
[8] = Homo sapiens, ASPC1, 2 h, AsPC-1 cells, 2 h
[9] = Homo sapiens, ASPC1, 72 h, AsPC-1 cells, 72 h, first value of the cell

Chain of GDP-bound KRAS protein (aa 1-169), containing both G12D and C118A amino acid substitutions (P01116 1-169 isoform P01116-2 G12D/C118A): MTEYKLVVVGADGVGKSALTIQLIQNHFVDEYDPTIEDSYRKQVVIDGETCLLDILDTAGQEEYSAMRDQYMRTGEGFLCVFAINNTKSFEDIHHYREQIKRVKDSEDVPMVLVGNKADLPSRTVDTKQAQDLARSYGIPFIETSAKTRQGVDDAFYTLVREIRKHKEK
Chain of His-tagged KRAS G12D protein (P01116 1-188 isoform P01116-2 G12D): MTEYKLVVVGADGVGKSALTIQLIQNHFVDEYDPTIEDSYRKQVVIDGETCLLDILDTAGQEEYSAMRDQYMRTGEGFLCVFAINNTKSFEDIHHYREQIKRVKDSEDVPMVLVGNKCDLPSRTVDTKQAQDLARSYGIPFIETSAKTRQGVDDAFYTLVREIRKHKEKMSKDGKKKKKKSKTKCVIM

SMILES | pIC50 ([1]; TR-FRET binding) | pIC50 [2, 5] | pIC50 (AsPC-1 cells; [6]) | further results
CN1C(=O)CCCCc2c(Cl)cc3[nH]ncc3c2-c2cc3nc(OC[C@@]45CCCN4C[C@H](F)C5)nc(c3nn2)N2CCC[C@@H]1C2 | – | – | – | ring closure, yield after HPLC ([3]; from CN[C@@H]1CCCN(c2nc(OC[C@@]34CCCN3C[C@H](F)C4)nc3cc(-c4c(CCCCC(=O)O)c(Cl)cc5[nH]ncc45)nnc23)C1, amide bond, EDCI/HOBt/DIEA, DCM, 10.3 mM, 25.0 °C, 36.0 h, 3 steps): 20%
C[C@@]12CCCN(C1)c1nc(OC[C@@]34CCCN3C[C@H](F)C4)nc3c(F)c(ncc13)-c1cc(O)cc3ccc(F)c(c13)CCCC(=O)O2 [Example 43, (15R)-22,31-Difluoro-8-(((2R,7aS)-2-fluorotetrahydro-1H-pyrrolo[1,2-a]pyrrol-7a(5H)-yl)methoxy)-27-hydroxy-15-methyl-16-oxa-3,7,9,11-tetraazahexacyclo[19.7.1.1˜2,6˜.1˜11,15˜.0˜5,10˜.0˜25,29˜]hentriaconta-1(28),2(31),3,5,7,9,21,23,25(29),26-decaen-17-one bis(2,2,2-trifluoroacetate)] | 8.40 | 7.89 | 7.04 | IC50 [4, 7]: 2 nM
O[C@H]1C[C@@H]2CN(C1)c1nc(OC[C@@]34CCCN3C[C@H](F)C4)nc3c(F)c(ncc13)-c1c(c(Cl)cc3[nH]ncc13)CCCc1nc2no1 (racemic) [Example 377, (rac-18R,20S)-9-chloro-31-fluoro-25-(((2R,7a.S)-2-fluorotetrahydro-1H-pyrrolo[1,2-a]pyrrol-7a(5H)-yl)methoxy)-15-oxa-5,6,16,22,24,26,30,33-octaazaheptacyclo[25.3.1.1~14,17~.1~18,22~.0~2,10~0~3.7~.0~23,28~]tritriaconta-1(31),2,4,7,9,14(33),16,23,25,27,29-undecaen-20-ol] | – | – | – | pIC50 ([1]; TR-FRET, read-out: KRAS G12D Binding IC50): 8.30; pIC50 [2, 8]: 8.00; pIC50 (AsPC-1 cells; [9]): 6.90
CC1COC(=O)C[C@@H]2CCCN(C2)c2nc(OC[C@@]34CCCN3C[C@H](F)C4)nc3c(F)c(ncc23)-c2c(c(Cl)cc3[nH]ncc23)C1 (some centres unmarked) [Example 91] | 8.40 | 7.57 | 6.55 | IC50 [4, 7]: 2 nM
C[C@@]12CCCCN(C1)c1nc(OC[C@@]34CCCN3C[C@H](F)C4)nc3c(F)c(ncc13)-c1c(c(Cl)cc3[nH]ncc13)CCCC(F)C(=O)N2 (mixture of isomers) [Example 281, (23RS,26R)-18-chloro-23,32-difluoro-4-(((2R,7aS)-2-fluorotetrahydro-1H-pyrrolo[1,2-a]pyrrol-7a(5H)-yl)methoxy)-26-methyl-1,3,5,9,14,15,25-heptaazahexacyclo[24.4.1.1~6,10~.0~2,7~.0~11,19~.0~12,16~]dotriaconta-2,4,6,8,10(32),11,13,16,18-nonaen-24-one] | – | – | – | pIC50 (MIA PaCa-2 cells): 7.05
Cc1cc2[nH]ncc2c(-c2ncc3c(O)nc(OC[C@@]45CCCN4C[C@H](F)C5)nc3c2F)c1CCOC(=O)OC[C@@H]1CCCNC1 | – | – | – | ring closure, yield after HPLC ([3]; the molecule shown is the open-chain precursor, snar bond): 20%
O=C1CCCc2c(F)ccc3cccc(c23)-c2ncc3c(nc(OC[C@@]45CCCN4C[C@H](F)C5)nc3c2F)N2CCC[C@H](C2)N1 | – | – | – | ring closure, yield after HPLC ([3]; from N[C@@H]1CCCN(c2nc(OC[C@@]34CCCN3C[C@H](F)C4)nc3c(F)c(-c4cccc5ccc(F)c(CCCC(=O)O)c45)ncc23)C1, amide bond, HATU/DIEA, DMF, 5.9 mM, 0.5 h, 2 steps): 30%
O[C@H]1C[C@@H]2CN(C1)c1nc(OC[C@@]34CCCN3C[C@H](F)C4)nc3c(F)c(ncc13)-c1c(c(Cl)cc3[nH]ncc13)CCCc1nc2no1 [Example 378, (18R,20S)-9-chloro-31-fluoro-25-(((2R,7aS)~2-fluorotetrahydro-1H-pyrrolo[1,2-α]pyrrol-7a(5H)-yl)methoxy)-15-oxa-5,6,16,22,24,26,30,33-octaazaheptacyclo[25.3.1.1~14,17~.1~18,22~.0~2,10~0~3,7~.0~23,28~]tritriaconta-1(31),2,4,7,9,14(33),16,23,25,27,29-undecaen-20-ol] | – | – | – | pIC50 [2, 8]: 7.32; pIC50 (AsPC-1 cells; [9]): 6.11
Cc1cc2[nH]ncc2c2c1CCCOC(=O)CC1CCCN(C1)c1nc(OC[C@@]34CCCN3C[C@H](F)C4)nc3c(F)c-2ncc13 (some centres unmarked) [Example 39] | – | 7.80 | 6.72 | –
O=C1CCCCc2c(Cl)cc3[nH]ncc3c2-c2ncc3c(nc(OC[C@@]45CCCN4C[C@H](F)C5)nc3c2F)N2CCC3CCN1[C@H]3C2 (mixture of isomers) [Example 60] | 7.89 | 7.92 | – | pIC50 [4, 7]: 8.22
Cc1cc2[nH]ncc2c2c1CCCCOCC1CN(CCC1(F)F)c1nc(OC[C@@]34CCCN3C[C@H](F)C4)nc3c(F)c-2ncc13 (stereo partly drawn) [Example 227, (17R)-18,18,30-trifluoro-24-(((2R,7aS)-2-fluorotetrahydro-1H-pyrrolo[1,2-α]pyrrol-7a(SH)-yl)methoxy)-9-methyl-15-oxa-5,6,21.23,25,29-hexaazahexacyclo[24.3.1.1~17,21~.0~2,10~.0~3.7~.0~22,27~]hentriaconta-1(30),2,4,7,9,22,24,26,28-nonaene] | – | – | – | pIC50 [4]: 7.92; pIC50 ([1]; read-out: KRAS G12D Binding IC50): 7.46; pIC50 [2]: 6.21; pIC50 (AsPC-1 cells): 5.41
CSc1nc2c3cnc(c(C)c3n1)-c1cc(O)cc3ccc(F)c(c13)CCCC(=O)N[C@]1(C)CCCN2C1 | – | – | – | ring closure, yield after HPLC ([3]; from CSc1nc(N2CCC[C@@](C)(N)C2)c2cnc(-c3cc(O)cc4ccc(F)c(CCCC(=O)O)c34)c(C)c2n1, amide bond, HATU, then Me2NH, DCM/DMA/DMF, 5.6 mM, 25.0 °C): 32%
CN1C(=O)OCCCc2c(Cl)cc3[nH]ncc3c2-c2ncc3c(nc(OC[C@@]45CCCN4C[C@H](F)C5)nc3c2F)N2CCC[C@@H]1C2 | – | – | – | ring closure, yield after HPLC ([3]; from CN(C(=O)OCCCc1c(Cl)cc2[nH]ncc2c1-c1ncc2c(O)nc(OC[C@@]34CCCN3C[C@H](F)C4)nc2c1F)[C@@H]1CCCNC1, snar bond, PyBroP/DIEA, MeCN/DMSO, 11.7 mM, 25.0 °C, 2 steps): 14%

More lines, main results first:

pIC50 ([1]; TR-FRET binding) | pIC50 [2, 5] | pIC50 (AsPC-1 cells; [6]) | SMILES | further results
8.15 | 6.91 | 6.22 | O=C1COCCc2c(Cl)cc3[nH]ncc3c2-c2ncc3c(nc(OC[C@@]45CCCN4C[C@H](F)C5)nc3c2F)N2CC[C@H]3CCN1[C@H]3C2 [Example 270] | pIC50 (MIA PaCa-2 cells): 6.17
7.92 | 6.70 | 5.71 | O=C1OCCCc2c(Cl)cccc2-c2ncc3c(nc(OC[C@@]45CCCN4C[C@H](F)C5)nc3c2F)N2CCOC[C@H](C2)O1 [Example 186, (23S)-15-chloro-29-fluoro-4-(((2R,7aS)-2-fluorotetrahydro-1H-pyrrolo[1,2-a]pyrrol-7a(5H)-yl)methoxy)-20,22,25-trioxa-1,3,5,9-tetraazapentacyclo[21.4.1.1~6,10~.0~2,7~.0~11,16~]nonacosa-2,4,6,8,10(29),11,13,15-octaen-21-one] | –
8.40 | 7.93 | 6.92 | C[C@@]12COCCN(C1)c1nc(OC[C@@]34CCCN3C[C@H](F)C4)nc3c(F)c(ncc13)-c1c(c(F)cc3[nH]ncc13)CCCOC(=O)O2 [Example 184, (26S)-18,32-difluoro-4-(((2R,7aS)-2-fluorotetrahydro-1H-pyrrolo[1,2-a]pyrrol-7a(5H)-yl)methoxy)-26-methyl-23,25,28-trioxa-1,3,5,9,14,15-hexaazahexacyclo[24.4.1.1~6,10~.0~2,7~.0~11,19~.0~12,16~]dotriaconta-2,4,6,8,10(32),11,13,16,18-nonaen-24-one] | IC50 [4, 7]: 2 nM
– | 7.52 | 6.50 | O=C1OCCCc2c(Cl)cc3[nH]ncc3c2-c2ncc3c(nc(OC[C@@]45CCCN4C[C@H](F)C5)nc3c2F)N2CCC[C@]3(C2)C[C@H](C3)O1 [Example 323, (1R,3S)-11-chloro-33-fluoro-25-(((2R,7aS)-2-fluorotetrahydro-1H-pyrrolo[1,2-a]pyrrol-7a(5H)-yl)methoxy)-4,6-dioxa-14,15,20,24,26,28-hexaazaheptacyclo[26.3.1.1~1,3~.1~19,23~.0~10,18~.0~13,17~.0~22,27~]tetratriaconta-10,12,15,17,19(33),20,22,24,26-nonaen-5-one] | –
